In series [1] the test system is axillary malodor. In words: topical treatment of axillary malodor on the skin. Particulars: for outcome of treatment of repeated infections: overnight; for effect against axillary malodors: topical application to armpits, applicants' own experiments. It is filed as in vivo, human. An excerpt: Non-prescription azoles sold in groceries are intended for treating feet or vaginal fungal infections. Essentially the same compositions are often sold for feet and vaginal applications under different labels and in different forms. For axillary use, we strongly prefer them as creams.
In our experiments, we treated the armpits, then switched to all new underwear, and rigorously sterilized it with chlorine-based bleaches after every use. […]
A person, low perspiration, axillary malodor since puberty. […] Now uses peroxide bleach all the time.

The conditions of series [2]: in vivo.
From the text: (§1) Undecylenic acid, salicylic acid and peroxides suffer from certain disadvantages.
Series [3] is described as follows: skin tolerability on armpit application.
From the text: as §1

Like-named read-outs stand apart in the source and are kept apart here.

Turning to `Clc1ccc(COC(Cn2ccnc2)c2ccc(Cl)cc2Cl)c(Cl)c1` (stereo not shown) [miconazole], the “outcome of treatment of repeated infections” value in series [1] (person, two times in a row) is “cured”. For the same compound, the “outcome of first treatment of axillary malodor” value in series [1] (person, two applications per day, seven days in a row) is reported as “Successfully treated”.

As to `Clc1ccc(C(Cn2ccnc2)OCc2ccsc2Cl)c(Cl)c1` (stereo not shown) [tioconazole], the “outcome of treatment of repeated infections” value in series [1] (person, one-time treatment) was “cured”. Further, the “effectiveness compared with clotrimazole” value in series [1] (vaginal tioconazole product, topical on armpits) is reported as “much more effective than clotrimazole”.

As for `CN(C/C=C/C#CC(C)(C)C)Cc1cccc2ccccc12` [Terbinafine], the “effect against axillary malodors” value in series [1] was “some effect”.

With `C=CCCCCCCCCC(=O)O` [Undecylenic acid], the adverse skin effects result in series [2] was “may cause pain, burning and irritations”. Further, the “effect against axillary malodors” value in series [1] is reported as “functional”.

As for `OO` [hydrogen peroxide], in series [1], the “effect against axillary malodors” value was “functional”.

For `Cc1cccc(N(C)C(=S)Oc2ccc3ccccc3c2)c1` [tolnaftate], the “effect against axillary malodors” value in series [1] is on record as “some effect”.

For the compound `O=C(OOC(=O)c1ccccc1)c1ccccc1` [benzoyl peroxide], the “effect against axillary malodors” value in series [1] is recorded as “functional”.

Take `Clc1ccccc1C(c1ccccc1)(c1ccccc1)n1ccnc1` [clotrimazole]: the “time at which the odor disappears” value in series [1] (mature axillary malodor, cream two times a day, two weeks treatment) was “between the fourth and the seventh day”.

For the compound `O=C(O)c1ccccc1O` [salicylic acid], the “effect against axillary malodors” value in series [1] is given as “functional”. The adverse skin effects entry in series [3] was “may cause pain, burning and irritations”.
